# What was measured:
# [1] = target: T1, Brd4 bromodomain 1 (BRD4(1)) (Homo sapiens, UniProt O60885); assay: Inhibition of tetra-acetylated histone H4 binding to BET bromodomains (TR-FRET); parameters: key: Active: Compounds with an IC50 value less than 30 μM were deemed to be active.; Not Active: Compounds with an IC50 value less than 30 μM were deemed to be active; conditions: first bromodomain of Brd4, tetra-acetylated histone H4 peptide
# T1 construct: made in house; host or cells: E. coli BL21(DE3)
# Method: Proteins were cloned and overexpressed with a N-terminal 6×His tag, then purified by nickel affinity followed by size exclusion chromatography. Briefly, E. coli BL21(DE3) cells were transformed with a recombinant expression vector encoding N-terminally Nickel affinity tagged bromodomains from Brd2, Brd3, Brd4. Cell cultures were incubated at 37° C. with shaking to the appropriate density and induced overnight with IPTG. The supernatant of lysed cells was loaded onto Ni-IDA column for purification. Eluted protein is pooled, concentrated and further purified by size exclusion chromatography. Fractions representing monomeric protein were pooled, concentrated, aliquoted, and frozen at −80° C. for use in subsequent experiments.
# Binding of tetra-acetylated histone H4 and BET bromodomains was confirmed by a Time Resolved Fluorescence Resonance Energy Transfer (TR-FRET) method. N-terminally His-tagged bromodomains (200 nM) and biotinylated tetra-acetylated histone H4 peptide (25-50 nM, Millipore) were incubated in the presence of Europium Cryptate-labeled streptavidin (Cisbio Cat. #610SAKLB) and XL665-labeled monoclonal anti-His antibody (Cisbio Cat. #61HISXLB) in a white 96 well microtiter plate (Greiner). For inhibition assays, serially diluted test compound was added to these reactions in a 0.2% final concentration of DMSO. Final buffer concentrations were 30 mM HEPES pH 7.4, 30 mM NaCl, 0.3 mM CHAPS, 20 mM phosphate pH 7.0, 320 mM KF, 0.08% BSA). After a 2-h incubation at room temperature, the fluorescence by FRET was measured at 665 and 620 nm by a SynergyH4 plate reader (Biotek). The binding inhibitory activity was shown by a decrease in 665 nm fluorescence relative to 620 nm. IC50 values were determined from a dose response curve.
# hIL-6 mRNA = assay: Inhibition of hIL-6 mRNA transcription in LPS-stimulated U937 macrophages; assay type: cell-based, human; parameters: key: Active: Compounds with an IC50 value less than 30 μM were deemed to be active.; Not Active: Compounds with an IC50 value less than 30 μM were deemed to be active; conditions: U937 cells differentiated with PMA, LPS stimulation, 3 h
# Method: In this example, hIL-6 mRNA in tissue culture cells was quantitated to measure the transcriptional inhibition of hIL-6 when treated with a compound of the present disclosure.
# A human leukemic monocyte lymphoma cell line (U937) was plated (3.2×10^4 cells per well) in a 96-well plate in 100 μL RPMI-1640 containing 10% FBS and penicillin/streptomycin, and differentiated into macrophages for 3 days in 60 ng/mL PMA ([…]) at 37° C. in 5% CO2 prior to the addition of the compound of interest. The cells were pretreated for 1 h with the test compound prior to stimulation with 1 ug/mL lipopolysaccharide from Escherichia coli. The cells were incubated at 37° C. for 3 h before the cells were harvested. At time of harvest, the spent media was removed from the cells and the cells were rinsed in 200 μL PBS. Cell lysis solution (70 μL) was added the cells in each well and incubated for 5-10 min at room temperature, to allow for complete cell lysis and detachment. mRNA was then prepared using the “mRNA Catcher PLUS plate” (Invitrogen), according to the protocol supplied. After the last wash, as much wash buffer as possible was aspirated without allowing the wells to dry. Elution buffer (E3, 70 μL) was then added to each well. mRNA was then eluted by incubating the mRNA Catcher PLUS plate with Elution Buffer for 5 min at 68° C. and then immediately placing the plate on ice.
# The eluted mRNA isolated was then used in a one-step quantitative real-time PCR reaction, using components of the Ultra Sense Kit together with Applied Biosystems primer-probe mixes. Real-time PCR data was analyzed, normalizing the Ct values for hIL-6 to an internal control, prior to determining the fold induction of each unknown sample, relative to the control.
# c-myc in MV4-11 cells = assay: Inhibition of c-myc expression in cancer cell lines (mRNA, real-time PCR); assay type: cell-based, Human; parameters: key: Active: Compounds with an IC50 value less than 30 μM were deemed to be active.; Not Active: Compounds with an IC50 value less than 30 μM were deemed to be active; conditions: 3 h
# Method: MV4-11 cells (2.5×10^4 cells) were plated in 96 well U-bottom plates with test compound or DMSO (0.1%), and incubated for 3 h at 37° C. Cells were then harvested by centrifugation, lysed, and mRNA was isolated using the mRNA catcher plus kit (Invitrogen). Reverse transcription of the mRNA and duplex amplification of the c-myc and cyclophilin cDNAs was performed using the RNA Ultrasense kit (Invitrogen) and a ViiA7 real-time PCR machine (Applied Biosystems). IC50 values were determined from a dose response curve.
# human AML MV-4-11 cells = assay: Inhibition of cell proliferation in cancer cell lines (CellTiter Aqueous One); assay type: cell-based; parameters: key: Active: Compounds with an IC50 value less than 30 μM were deemed to be active.; Not Active: Compounds with an IC50 value less than 30 μM were deemed to be active; conditions: 72 h
# Method: MV4-11 cells: 96-well plates were seeded with 5×10^4 cells per well of exponentially growing human AML MV-4-11 (CRL-9591) cells and immediately treated with two-fold dilutions of test compounds, ranging from 30 μM to 0.2 μM. Triplicate wells were used for each concentration, as well as a media only and three DMSO control wells. The cells and compounds were incubated at 37° C., 5% CO2 for 72 h before adding 20 μL of the CellTiter Aqueous One Solution (Promega) to each well and incubating at 37° C., 5% CO2 for an additional 3-4 h. The absorbance was taken at 490 nm in a spectrophotometer and the percentage of proliferation relative to DMSO-treated cells was calculated after correction from the blank well. IC50 were calculated using the GraphPad Prism software.
FRET activity BRD4(1) [1],IL-6 activity (IC50 < 30 μM) (hIL-6 mRNA),c-myc activity (IC50 < 30 μM) (c-myc in MV4-11 cells),Cell Proliferation activity (IC50 < 30 μM) (human AML MV-4-11 cells),melting point,Structure (SMILES)
Active,Active,,,,"COc1cc(OC)c2c(=O)[nH]c(-c3ncc(OCCNC4CCN(C(C)C)CC4)cc3NC3CCN(C(C)C)CC3)nc2c1 [Example 50, 2-(3-((1-Isopropylpiperidin-4-yl)amino)-5-(2-((1-isopropylpiperidin-4-yl)amino)ethoxy)pyridin-2-yl)-5,7-dimethoxyquinazolin-4(3H)-one]"
Active,,Active,Active,195 to 197 °C,"COc1cc(OC)c2c(=O)[nH]c(-c3ncccc3NC3CCN(C(=O)N(C)C)CC3)nc2c1 [Example 42, 4-((2-(5,7-Dimethoxy-4-oxo-3,4-dihydroquinazolin-2-yl)pyridin-3-yl)amino)-N,N-dimethylpiperidine-1-carboxamide]"
Active,,,Not Active,286 to 287 °C,"COc1ccc(-c2nc3cc(OC)cc(OC)c3c(=O)[nH]2)c(NC2CCOCC2)c1 [Example 9, 5,7-dimethoxy-2-(4-Methoxy-2-((tetrahydro-2H-pyran-4-yl)amino)-phenyl)quinazolin-4(3H)-one]"
Active,,Active,,207 to 209 °C,"COc1ccc(-c2nc3cc(OC)cc(OC)c3c(=O)[nH]2)c(NCC2CCCN2C(C)C)c1 (stereo not shown) [Example 17, 2-(2-(((1-Isopropylpyrrolidin-2-yl)methyl)amino)-4-methoxyphenyl)-5,7-dimethoxyquinazolin-4(3H)-one]"
Active,,Active,Active,166 to 169 °C,"COc1cc(OC)c2c(=O)[nH]c(-c3ncc(OCCN4CCCC4)cc3NC3CCN(C(C)C)CC3)nc2c1 [Example 66, 2-{3-(1-Isopropylpiperidin-4-ylamino)-5-[2-(pyrrolidin-1-yl)ethoxy]pyridin-2-yl}-5,7-dimethoxyquinazolin-4(3H)-one]"
Active,,Active,Active,220 to 222 °C,COc1ccc(-c2nc3cc(OC)cc(OC)c3c(=O)[nH]2)c(NCCCN2CCN(C)CC2)c1 [Example 21]
Active,,Active,Active,228 to 230 °C,"COc1ccc(-c2nc3cc(OC)cc(OC)c3c(=O)[nH]2)c(NCC2CCN(C(C)C)C2)c1 (stereo not shown) [Example 16, 2-(2-(((1-Isopropylpyrrolidin-3-yl)methyl)amino)-4-methoxyphenyl)-5,7-dimethoxyquinazolin-4(3H)-one]"
Active,,,Not Active,239 to 240 °C,"COc1ccc(-c2nc3cc(OC)cc(OC)c3c(=O)[nH]2)c(NCCN2CCOCC2)c1 [Example 14, 5,7-Dimethoxy-2-(4-methoxy-2-((2-morpholinoethyl)amino)phenyl)-quinazolin-4(3H)-one]"
Active,,Active,Active,231 to 233 °C,"COc1cc(OC)c2c(=O)[nH]c(-c3ncc(OCCO)cc3NC3CCN(C(C)C)CC3)nc2c1 [Example 62, 2-[5-(2-Hydroxyethoxy)-3-(l-isopropylpiperidin-4-ylamino)pyridin-2-yl]-5,7-dimethoxyquinazolin-4(3H)-one]"
Active,,Active,Active,178 to 181 °C,"COc1cc(OC)c2c(=O)[nH]c(-c3ncc(OCCNC(C)C)cc3NC3CCN(C(C)C)CC3)nc2c1 [Example 67, 2-{5-[2-(Isopropylamino)ethoxy]-3-(1-isopropylpiperidin-4-ylamino)pyridin-2-yl}-5,7-dimethoxyquinazolin-4(3H)-one]"
Active,,,Not Active,263 to 265 °C,"COc1ccc(-c2nc3cc(OC)cc(OC)c3c(=O)[nH]2)c([S+]([O-])C2CCN(C)CC2)c1 (stereo not shown) [Example 23, 5,7-Dimethoxy-2-[4-methoxy-2-(1-methylpiperidin-4-ylsulfinyl)phenyl]quinazolin-4(3H)-one]"
Active,,Active,Active,,"COc1ccc(-c2nc3cc(OC)cc(OC)c3c(=O)[nH]2)c(NCCCN2CCCC2)c1 [Example 15, 5,7-Dimethoxy-2-(4-methoxy-2-((3-(pyrrolidin-1-yl)propyl)amino)phenyl)quinazolin-4(3H)-one]"
Active,,,Not Active,256 to 257 °C,"COc1cc(OC)c2c(=O)[nH]c(-c3ncccc3N[C@H]3CC[C@@H](C(=O)NC(C)C)CC3)nc2c1 [Example 63, cis-4-((2-(5,7-Dimethoxy-4-oxo-3,4-dihydroquinazolin-2-yl)pyridin-3-yl)amino)-N-isopropylcyclohexane-1-carboxamide]"
Active,,Active,Active,220 to 222 °C,"COc1ccc(CNc2cc(OC)c3c(=O)[nH]c(-c4ncccc4NC4CCN(C(C)C)CC4)nc3c2)cc1 [Example 61, 2-(3-((1-Isopropylpiperidin-4-yl)amino)pyridin-2-yl)-5-methoxy-7-((4-methoxybenzyl)amino)quinazolin-4(3H)-one]"
Active,,Active,Active,220 to 221 °C,"COc1cc(OC)c2c(=O)[nH]c(-c3ncccc3NC3CCN(CC(C)(C)O)CC3)nc2c1 [Example 59, 2-(3-((1-(2-Hydroxy-2-methylpropyl)piperidin-4-yl)amino)pyridin-2-yl)-5,7-dimethoxyquinazolin-4(3H)-one]"

# Source: US10500209B2, “Quinazolinones as bromodomain inhibitors” (Zenith Epigenetics Ltd., priority 2013, dated 2019)
